Experimental data from patent US10494363B2, “Non-steroidal glucocorticoid receptor modulators for local drug delivery” (LEO PHARMA A/S, priority 2015, dated 2019).

Columns and labels:
[1] = Human liver microsomes (HLM) assay; type: in vitro ADME; conditions: hepatic extraction ratio; 0.5 μM compound, 0.5 mg/mL microsomes, NADPH, 37° C.
Procedure, shortened: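 Compound at 0.5 μM incubated at 37° C. with human liver microsomes (0.5 mg/mL) and NADPH (1 mM) in phosphate buffer pH 7.4, 1% organic solvent; sampled 0-30 minutes. Clapp (mL/min/kg) and Eh (%) derived from depletion rate constant.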

[2] = test system: TNF alpha release from human PBMCs; test: Inhibition of TNF alpha release from human PBMCs; type: cell-based; conditions: LPS 1 μg/ml, 18 hours, AlphaLISA
Procedure, shortened: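 Fresh or thawed PBMCs in serum-free medium with 0.5% HSA, stimulated with 1 μg/ml LPS plus titrated compound for 18 h at 37° C. TNF-a in supernatant by AlphaLISA; window set with a reference PDE4 inhibitor at 100×IC50. EC50 and Emax from sigmoidal fits.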

[3] = target: T1, glucocorticoid receptor (GR), recombinant full-length receptor protein (Homo sapiens, UniProt P04150); test: Glucocorticoid receptor binding assay (fluorescence polarization kit); conditions: 4 nM receptor, 2.5 nM Fluormone GS1 tracer, 2h room temperature, read-out: GR binding ABS IC50
T1 construct: 4 nM recombinant, full-length receptor protein was incubated with increasing concentrations of GR ligand; purchased Life Technologies A-15897
T1 sequence (P04150 1-777): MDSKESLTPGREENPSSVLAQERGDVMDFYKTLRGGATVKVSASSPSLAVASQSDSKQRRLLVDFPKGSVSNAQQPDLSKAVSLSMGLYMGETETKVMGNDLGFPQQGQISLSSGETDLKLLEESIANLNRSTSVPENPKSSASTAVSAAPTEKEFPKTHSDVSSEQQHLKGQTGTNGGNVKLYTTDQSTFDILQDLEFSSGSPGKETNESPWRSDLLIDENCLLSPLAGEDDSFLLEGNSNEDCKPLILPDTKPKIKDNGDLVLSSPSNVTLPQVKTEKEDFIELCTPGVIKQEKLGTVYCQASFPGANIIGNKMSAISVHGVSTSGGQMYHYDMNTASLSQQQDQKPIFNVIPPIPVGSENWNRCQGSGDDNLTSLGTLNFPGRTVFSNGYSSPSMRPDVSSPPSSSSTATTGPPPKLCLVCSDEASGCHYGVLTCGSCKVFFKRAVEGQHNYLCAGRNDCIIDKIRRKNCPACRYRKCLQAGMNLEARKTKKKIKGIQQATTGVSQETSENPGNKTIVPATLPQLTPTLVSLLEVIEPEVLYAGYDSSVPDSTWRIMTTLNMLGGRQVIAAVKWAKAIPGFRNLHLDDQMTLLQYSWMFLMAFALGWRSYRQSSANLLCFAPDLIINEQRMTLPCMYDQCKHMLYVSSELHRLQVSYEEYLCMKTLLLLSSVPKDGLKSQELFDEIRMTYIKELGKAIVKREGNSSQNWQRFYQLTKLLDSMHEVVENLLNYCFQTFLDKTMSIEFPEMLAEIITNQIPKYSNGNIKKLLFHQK
Procedure: Test compounds were diluted in DMSO over seven orders of magnitude, further diluted in assay buffer and distributed into 384-well plates. The sensitivity limit of this assay was 2-4 nM.
Data were processed by sigmoidal curve fitting.
Absolute (Abs) IC50 and Emax were determined from the curve fits.

Row | Compound | HLM assay Eh (%) [1] | IC50 [3] [nM] | EC50 ([2]; PBMC) [nM] | EC50 [2] [nM]
1 | COCC(=O)N[C@@H](C)[C@H](Oc1ccc(C(=O)O[C@H]2CCCN(C(=O)[C@H]3COC(=O)C3)C2)cc1)c1ccc(C2CC2)cc1 [Compound 34, [(3S)-1-[(3R)-5-oxotetrahydrofuran-3-carbonyl]-3-piperidyl] 4-[(1R,2S)-1-(4-cyclopropylphenyl)-2-[(2-methoxyacetyl)amino]propoxy]benzoate] | * (extraction ratio (Eh)>90%) | < 100 | < 100 | 
2 | C[C@H](NC(=O)c1ccnn1C)[C@H](Oc1ccc(C(=O)O[C@H]2CCCN(C(=O)[C@H]3COC(=O)C3)C2)cc1)c1ccc(C2CC2)cc1 [Compound 35, [(3S)-1-[(3R)-5-oxotetrahydrofuran-3-carbonyl]-3-piperidyl] 4-[(1R,2S)-1-(4-cyclopropylphenyl)-2-[(2-methylpyrazole-3-carbonyl)amino]propoxy]benzoate] | * (extraction ratio (Eh)>90%) | < 100 | 100 to 300 | 
3 | Cc1ncc(C(=O)N[C@@H](C)[C@H](Oc2ccc(C(=O)O[C@H]3CCCN(C(=O)[C@H]4COC(=O)C4)C3)cc2)c2ccc(C3CC3)cc2)s1 [Compound 36, [(3S)-1-[(3R)-5-oxotetrahydrofuran-3-carbonyl]-3-piperidyl] 4-[(1R,2S)-1-(4-cyclopropylphenyl)-2-[(2-methylthiazole-5-carbonyl)amino]propoxy]benzoate] | * (extraction ratio (Eh)>90%) | < 100 | < 100 | 
4 | C[C@H](NC(=O)[C@H]1CCCO1)[C@H](Oc1ccc(C(=O)O[C@H]2CCCN(C(=O)[C@H]3COC(=O)C3)C2)cc1)c1ccc(C2CC2)cc1 [Compound 37, [(3S)-1-[(3R)-5-oxotetrahydrofuran-3-carbonyl]-3-piperidyl] 4-[(1R,2S)-1-(4-cyclopropylphenyl)-2-[[(2R)-tetrahydrofuran-2-carbonyl]amino]propoxy]benzoate] | * (extraction ratio (Eh)>90%) | < 100 | < 100 | 
5 | C[C@H](NC(=O)c1cnnn1C)[C@H](Oc1ccc(C(=O)O[C@H]2CCCN(C(=O)[C@H]3COC(=O)C3)C2)cc1)c1ccc(C2CC2)cc1 [Compound 38, [(3S)-1-[(3R)-5-oxotetrahydrofuran-3-carbonyl]-3-piperidyl] 4-[(1R,2S)-1-(4-cyclopropylphenyl)-2-[(3-methyltriazole-4-carbonyl)amino]propoxy]benzoate] | * (extraction ratio (Eh)>90%) | < 100 |  | 100 to 300
6 | C[C@H](NC(=O)c1ncon1)[C@H](Oc1ccc(C(=O)O[C@H]2CCCN(C(=O)[C@H]3COC(=O)C3)C2)cc1)c1ccc(C2CC2)cc1 [Compound 39, [(3S)-1-[(3R)-5-oxotetrahydrofuran-3-carbonyl]-3-piperidyl] 4-[(1R,2S)-1-(4-cyclopropylphenyl)-2-(1,2,4-oxadiazole-3-carbonylamino)propoxy]benzoate] | * (extraction ratio (Eh)>90%) | < 100 | < 100 | 
7 | C[C@H](NC(=O)c1nccn1C)[C@H](Oc1ccc(C(=O)O[C@H]2CCCN(C(=O)[C@H]3COC(=O)C3)C2)cc1)c1ccc(C2CC2)cc1 [Compound 40, [(3S)-1-[(3R)-5-oxotetrahydrofuran-3-carbonyl]-3-piperidyl] 4-[(1R,2S)-1-(4-cyclopropylphenyl)-2-[(1-methylimidazole-2-carbonyl)amino]propoxy]benzoate] | * (extraction ratio (Eh)>90%) | < 100 | < 100 | 
8 | Cc1cc(C(=O)N[C@@H](C)[C@H](Oc2ccc(C(=O)O[C@H]3CCCN(C(=O)[C@H]4COC(=O)C4)C3)cc2)c2ccc(C3CC3)cc2)on1 [Compound 41, [(3S)-1-[(3R)-5-oxotetrahydrofuran-3-carbonyl]-3-piperidyl] 4-[(1R,2S)-1-(4-cyclopropylphenyl)-2-[(3-methylisoxazole-5-carbonyl)amino]propoxy]benzoate] | * (extraction ratio (Eh)>90%) | < 100 | < 100 | 

More lines, main results first:

Row | HLM assay Eh (%) [1] | IC50 [3] [nM] | Compound | EC50 ([2]; PBMC) [nM] | EC50 [2] [nM]
9 | * (extraction ratio (Eh)>90%) | < 100 | Cc1nc(C(=O)N[C@@H](C)[C@H](Oc2ccc(C(=O)O[C@H]3CCCN(C(=O)[C@H]4COC(=O)C4)C3)cc2)c2ccc(C3CC3)cc2)no1 [Compound 42, [(3S)-1-[(3R)-5-oxotetrahydrofuran-3-carbonyl]-3-piperidyl] 4-[(1R,2S)-1-(4-cyclopropylphenyl)-2-[(5-methyl-1,2,4-oxadiazole-3-carbonyl)amino]propoxy]benzoate] | < 100 | 
10 | * (extraction ratio (Eh)>90%) | < 100 | C[C@H](NC(=O)c1cn(C)cn1)[C@H](Oc1ccc(C(=O)O[C@H]2CCCN(C(=O)[C@H]3COC(=O)C3)C2)cc1)c1ccc(C2CC2)cc1 [Compound 43, [(3S)-1-[(3R)-5-oxotetrahydrofuran-3-carbonyl]-3-piperidyl] 4-[(1R,2S)-1-(4-cyclopropylphenyl)-2-[(1-methylimidazole-4-carbonyl)amino]propoxy]benzoate] | < 100 | 
11 | * (extraction ratio (Eh)>90%) | < 100 | C[C@H](NC(=O)c1ccsn1)[C@H](Oc1ccc(C(=O)O[C@H]2CCCN(C(=O)[C@H]3COC(=O)C3)C2)cc1)c1ccc(C2CC2)cc1 [Compound 44, [(3S)-1-[(3R)-5-oxotetrahydrofuran-3-carbonyl]-3-piperidyl] 4-[(1R,2S)-1-(4-cyclopropylphenyl)-2-(isothiazole-3-carbonylamino)propoxy]benzoate] | < 100 | 
12 | * (extraction ratio (Eh)>90%) | < 100 | Cc1nocc1C(=O)N[C@@H](C)[C@H](Oc1ccc(C(=O)O[C@H]2CCCN(C(=O)[C@H]3COC(=O)C3)C2)cc1)c1ccc(C2CC2)cc1 [Compound 45, [(3S)-1-[(3R)-5-oxotetrahydrofuran-3-carbonyl]-3-piperidyl] 4-[(1R,2S)-1-(4-cyclopropylphenyl)-2-[(3-methylisoxazole-4-carbonyl)amino]propoxy]benzoate] | < 100 | 
13 | ** (50%<extraction ratio (Eh)<90%) | < 100 | C[C@H](NC(=O)c1nccs1)[C@H](Oc1ccc(C(=O)O[C@H]2CCCN(C(=O)[C@H]3COC(=O)C3)C2)cc1)c1ccc(C2CC2)cc1 [Compound 46, [(3S)-1-[(3R)-5-oxotetrahydrofuran-3-carbonyl]-3-piperidyl] 4-[(1R,2S)-1-(4-cyclopropylphenyl)-2-(thiazole-2-carbonylamino)propoxy]benzoate] | < 100 | 
14 | * (extraction ratio (Eh)>90%) | < 100 | C[C@H](NC(=O)c1ccns1)[C@H](Oc1ccc(C(=O)O[C@H]2CCCN(C(=O)[C@H]3COC(=O)C3)C2)cc1)c1ccc(C2CC2)cc1 [Compound 47, [(3S)-1-[(3R)-5-oxotetrahydrofuran-3-carbonyl]-3-piperidyl] 4-[(1R,2S)-1-(4-cyclopropylphenyl)-2-(isothiazole-5-carbonylamino)propoxy]benzoate] | < 100 | 
15 | * (extraction ratio (Eh)>90%) | < 100 | Cc1sncc1C(=O)N[C@@H](C)[C@H](Oc1ccc(C(=O)O[C@H]2CCCN(C(=O)[C@H]3COC(=O)C3)C2)cc1)c1ccc(C2CC2)cc1 [Compound 48, [(3S)-1-[(3R)-5-oxotetrahydrofuran-3-carbonyl]-3-piperidyl] 4-[(1R,2S)-1-(4-cyclopropylphenyl)-2-[(5-methylisothiazole-4-carbonyl)amino]propoxy]benzoate] | < 100 | 
16 | * (extraction ratio (Eh)>90%) | < 100 | C[C@H](NC(=O)c1ncco1)[C@H](Oc1ccc(C(=O)O[C@H]2CCCN(C(=O)[C@H]3COC(=O)C3)C2)cc1)c1ccc(C2CC2)cc1 [Compound 49, [(3S)-1-[(3R)-5-oxotetrahydrofuran-3-carbonyl]-3-piperidyl] 4-[(1R,2S)-1-(4-cyclopropylphenyl)-2-(oxazole-2-carbonylamino)propoxy]benzoate] | < 100 | 
